Values quoted from earlier work in patent publication US8097625B2, “Combination of sedative and a neurotransmitter modulator, and methods for improving sleep quality and treating depression” (priority 2003, dated 2012).
Where a name gives a salt, the structure may show the parent alone.

What was measured:
[1] = oral, 10 mg or 20 mg daily doses; cited from earlier work
[2] = system: patients with major depression; settings: 24 patients (37 trials) with major depression, 3 weeks; cited from earlier work
[3] = system: norepinephrine and serotonin reuptake; settings: cited from earlier work
[4] = humans, cited from earlier work
[5] = cited from earlier work
[6] = biological target: norepinephrine transporter (Homo sapiens, UniProt P23975); settings: cited from earlier work
[7] = cited from earlier work; remark: listed apart in the source
GABA uptake system = system: GABA uptake system; design: dose or concentration left out as unconfirmed; settings: cited from earlier work
[8] = biological target: GABA:2-oxo-glutarate aminotransferase (Homo sapiens, UniProt P80404); settings: 10^−3 M; cited from earlier work
[9] = system: L-glutamate 1-carboxylase; settings: 10^−3 M; cited from earlier work
[10] = system: lumbar dorsal horn interneurones and Renshaw cells; settings: cats anaesthetized with pentobarbitone sodium; electrophoretic currents; cited from earlier work
mice = settings: reference agents, scores below 40 denote behavioral depression; cited from earlier work
[11] = humans, 20 or 40 mg b.i.d. for 7 days; cited from earlier work
[12] = oral; cited from earlier work

GABA:2-oxo-glutarate aminotransferase, sequence (P80404 29-500): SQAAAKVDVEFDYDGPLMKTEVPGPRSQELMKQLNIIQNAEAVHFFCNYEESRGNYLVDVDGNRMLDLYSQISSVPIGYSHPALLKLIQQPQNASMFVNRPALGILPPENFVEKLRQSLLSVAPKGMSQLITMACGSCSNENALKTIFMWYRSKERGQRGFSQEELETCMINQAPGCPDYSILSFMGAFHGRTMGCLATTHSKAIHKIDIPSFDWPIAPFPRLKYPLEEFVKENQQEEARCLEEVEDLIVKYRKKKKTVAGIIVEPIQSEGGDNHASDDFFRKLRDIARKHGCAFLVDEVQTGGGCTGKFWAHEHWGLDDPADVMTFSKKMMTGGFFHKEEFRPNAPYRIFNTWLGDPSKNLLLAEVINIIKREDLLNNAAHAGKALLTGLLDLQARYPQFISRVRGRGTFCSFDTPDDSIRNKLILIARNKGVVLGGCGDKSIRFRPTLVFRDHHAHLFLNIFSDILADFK
norepinephrine transporter, sequence (P23975 whole entry): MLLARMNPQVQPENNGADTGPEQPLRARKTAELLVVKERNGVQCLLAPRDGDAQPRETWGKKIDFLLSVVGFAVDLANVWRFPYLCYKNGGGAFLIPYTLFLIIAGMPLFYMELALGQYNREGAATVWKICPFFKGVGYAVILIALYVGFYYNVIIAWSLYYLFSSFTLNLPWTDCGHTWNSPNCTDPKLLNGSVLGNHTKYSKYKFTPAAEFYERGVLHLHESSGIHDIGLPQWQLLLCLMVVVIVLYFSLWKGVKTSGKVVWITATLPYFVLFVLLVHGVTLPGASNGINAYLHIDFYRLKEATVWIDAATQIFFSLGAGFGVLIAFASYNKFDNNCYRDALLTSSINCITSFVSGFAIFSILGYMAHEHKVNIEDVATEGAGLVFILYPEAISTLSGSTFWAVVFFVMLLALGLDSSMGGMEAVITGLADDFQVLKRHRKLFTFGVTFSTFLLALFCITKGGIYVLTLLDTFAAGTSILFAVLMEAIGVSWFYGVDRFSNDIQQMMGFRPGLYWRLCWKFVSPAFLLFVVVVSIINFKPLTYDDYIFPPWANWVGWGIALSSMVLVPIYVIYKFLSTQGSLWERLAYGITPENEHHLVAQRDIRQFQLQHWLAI

CNCCC(Oc1ccc(C(F)(F)F)cc1)c1ccccc1.Cl (racemic) [Fluoxetine hydrochloride, N-methyl-3-(p-trifluormethylphenoxy)3-phenylpropylamine]
elimination half-life [1]: 24 to 220 h
elimination half-life, averaging [1]: 48 to 72 h

CNCC(O)CC12CCC(c3ccccc31)c1ccccc12 (racemic) [oxaprotiline, (±)-α-[(Methylamino)-methyl]-9,10-ethanoanthracene-9(10H)-ethanol]
Hamilton Scores [2]: significant reduction

CCN(CC)C(=O)[C@@]1(c2ccccc2)C[C@H]1CN (single isomer, unassigned) [dextrogyral enantiomer of milnacipran]
activity in inhibiting norepinephrine and serotonin reuptake versus the racemic mixture [3]: about twice as active

CCN(CC)C(=O)[C@@]1(c2ccccc2)C[C@H]1CN (single isomer, unassigned) [levrogyral enantiomer]
activity in inhibiting norepinephrine and serotonin reuptake versus the racemic mixture [3]: much less potent

CC(NC(C)(C)C)C(=O)c1cccc(Cl)c1 (stereo not drawn) [Bupropion]
mean elimination half-life (±SD) ([4]; after chronic dosing): 21 (±9) hours
terminal phase mean half-life ([4]; oral administration): 14 h

CNCCCN1c2ccccc2CCc2ccccc21 [Desipramine hydrochloride, 10,11-Dihydro-N-methyl-5H-dibenz[b,f]azepine-5-propanamine]
solubility in water (in words) [5]: soluble in water

c1ccc(CCCN2CCN(CCOC(c3ccccc3)c3ccccc3)CC2)cc1 [GBR-12935, 1-[2-(diphenylmethoxy)ethyl]-4-(3-phenylpropyl)piperazine dihydrochloride]
Ki [6]: 0.225 µM

CC(=O)N(C)c1cccc(-c2ccnc3c(C(=O)c4cccs4)cnn23)c1 [Indiplon, N-methyl-N-(3-{3-[2-thienylcarbonyl]-pyrazolo-[1,5-a]-pyrimidin-7-yl}-phenyl)acetamide]
half-life in vivo [7]: approximately 1.3 hours
resulting pH of solution in water ([5]; at approximately 20-30 µg/mL): approximately 8.0
soluble in water ([5]; resulting pH approximately 8.0): 20 to 30 µg/mL

CNCCCC12CCC(c3ccccc31)c1ccccc12 [Maprotiline hydrochloride, N-Methyl-9,10-ethanoanthracene-9(10H)-propanamine]
solubility in water (in words) [5]: slightly soluble in water

Oc1noc2c1CCNC2 [gaboxadol, 4,5,6,7-tetrahydroisoxazolo[5,4-c]pyridin-3-ol]
interaction with the GABA uptake system (GABA uptake system): did not interact
interaction with GABA:2-oxo-glutarate aminotransferase [8]: did not interact
interaction with L-glutamate 1-carboxylase [9]: did not interact
potency versus GABA, inhibition of the firing of central neurones [10]: relatively more potent than GABA

CCC1(c2ccccc2)CCC(=O)NC1=O (stereo not drawn) [glutethimide]
ED100 (mice): 300 mg/kg

O=C(CCCN1CCC(O)(c2ccc(Cl)cc2)CC1)c1ccc(F)cc1 [haloperidol]
ED100 (mice): 10 mg/kg

CCCC(C)(COC(N)=O)COC(N)=O [meprobamate]
ED100 (mice): 300 mg/kg

CCCC(C)C1(CC)C(=O)NC(=O)NC1=O (stereo not drawn) [pentobarbital]
ED100 (mice): 100 mg/kg

COC(=O)[C@H]1[C@H]2C[C@@H]3c4[nH]c5cc(OC)ccc5c4CCN3C[C@H]2C[C@@H](OC(=O)c2cc(OC)c(OC)c(OC)c2)[C@@H]1OC [reserpine]
ED100 (mice): 50 mg/kg

CNCC[C@@H](Oc1ccccc1C)c1ccccc1 [tomoxetine, (R)-(−)-N-methyl-3-(2-methylphenoxy)-3-phenylpropylamine]
drug-related adverse effects [11]: no serious drug-related adverse effects were observed

Cc1ccc(-c2nc3ccc(C)cn3c2CC(=O)N(C)C)cc1 [zolpidem, N,N,6-trimethyl-2-(4-methylphenyl)-imidazo [1,2-s]pyridine-3-acetamide]
duration of action [12]: up to 6 hours
